Key:
Test in all cases: relative viability (nuclei count vs DMSO), 5 days (fraction); higher = more cells survive
Dinaciclib + Alpelisib = compound: CCc1cnn2c(NCc3ccc[n+]([O-])c3)cc(N3CCCC[C@H]3CCO)nc12 [Dinaciclib] + Cc1nc(NC(=O)N2CCC[C@H]2C(N)=O)sc1-c1ccnc(C(C)(C)C(F)(F)F)c1 [Alpelisib] (partner 2 µM)
In short: (§1)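 The day after seeding in 1536-well plates, lung cancer cell lines were treated by pin tool with a single drug, or with a fixed anchor-drug dose together with five library-drug doses (not always all listed) in √10 steps. After 5 days, a combined fix-and-stain solution (final 0.05% Triton X-100, 1% formaldehyde, 1 ug/ml Hoechst) was added. Nuclei counted on 4× images gave relative viability as treated counts over vehicle counts, reported as the median of duplicate plates.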

Dinaciclib + Phenformin = compound: CCc1cnn2c(NCc3ccc[n+]([O-])c3)cc(N3CCCC[C@H]3CCO)nc12 [Dinaciclib] + N=C(N)NC(=N)NCCc1ccccc1 [Phenformin] (partner 250 µM)
In short: as §1

Dinaciclib + Dasatinib = compound: CCc1cnn2c(NCc3ccc[n+]([O-])c3)cc(N3CCCC[C@H]3CCO)nc12 [Dinaciclib] + Cc1nc(Nc2ncc(C(=O)Nc3c(C)cccc3Cl)s2)cc(N2CCN(CCO)CC2)n1 [Dasatinib] (partner 0.075 µM)
In short: as §1

Dinaciclib + Lapatinib = compound: CCc1cnn2c(NCc3ccc[n+]([O-])c3)cc(N3CCCC[C@H]3CCO)nc12 [Dinaciclib] + CS(=O)(=O)CCNCc1ccc(-c2ccc3ncnc(Nc4ccc(OCc5cccc(F)c5)c(Cl)c4)c3c2)o1 [Lapatinib] (partner 2 µM)
In short: as §1

Dinaciclib + AZD7762 = compound: CCc1cnn2c(NCc3ccc[n+]([O-])c3)cc(N3CCCC[C@H]3CCO)nc12 [Dinaciclib] + NC(=O)Nc1cc(-c2cccc(F)c2)sc1C(=O)N[C@H]1CCCNC1 [AZD7762] (partner 0.2 µM)
In short: as §1

| Cell Line | relative viability (Dinaciclib + Alpelisib; first compound 0.009487 µM) | relative viability (Dinaciclib + Alpelisib; first compound 0.03 µM) | relative viability (Dinaciclib + Alpelisib; first compound 0.09487 µM) | relative viability (Dinaciclib + Alpelisib; first compound 0.3 µM) | relative viability (Dinaciclib + Phenformin; first compound 0.009487 µM) | relative viability (Dinaciclib + Phenformin; first compound 0.03 µM) | relative viability (Dinaciclib + Phenformin; first compound 0.09487 µM) | relative viability (Dinaciclib + Phenformin; first compound 0.3 µM) | relative viability (Dinaciclib + Dasatinib; first compound 0.009487 µM) | relative viability (Dinaciclib + Dasatinib; first compound 0.03 µM) | relative viability (Dinaciclib + Dasatinib; first compound 0.09487 µM) | relative viability (Dinaciclib + Dasatinib; first compound 0.3 µM) | relative viability (Dinaciclib + Lapatinib; first compound 0.009487 µM) | relative viability (Dinaciclib + Lapatinib; first compound 0.03 µM) | relative viability (Dinaciclib + Lapatinib; first compound 0.09487 µM) | relative viability (Dinaciclib + Lapatinib; first compound 0.3 µM) | relative viability (Dinaciclib + AZD7762; first compound 0.009487 µM) | relative viability (Dinaciclib + AZD7762; first compound 0.03 µM) | relative viability (Dinaciclib + AZD7762; first compound 0.09487 µM) | relative viability (Dinaciclib + AZD7762; first compound 0.3 µM) |
| --- | --- | --- | --- | --- | --- | --- | --- | --- | --- | --- | --- | --- | --- | --- | --- | --- | --- | --- | --- | --- |
| NCI-H1944 | 0.904 | 0.221 | 0.152 | 0.166 | 0.184 | 0.117 | 0.121 | 0.13 | 0.267 | 0.117 | 0.117 | 0.13 | 0.936 | 0.169 | 0.143 | 0.147 | 0.745 | 0.0989 | 0.128 | 0.135 |
| NCI-H1975 | 0.473 | 0.118 | 0.112 | 0.147 | 0.364 | 0.153 | 0.113 | 0.1 | 0.483 | 0.263 | 0.0967 | 0.0711 | 0.561 | 0.129 | 0.107 | 0.133 | 0.957 | 0.421 | 0.22 | 0.215 |
| NCI-H1993 | 0.671 | 0.683 | – | 0.642 | 0.466 | 0.581 | 0.594 | 0.565 | 0.637 | 0.509 | 0.481 | 0.576 | 0.869 | 0.45 | – | 0.723 | 0.668 | 0.364 | 0.385 | 0.396 |
| NCI-H2085 | 0.976 | 0.346 | 0.228 | 0.258 | 0.72 | 0.304 | 0.232 | 0.202 | 0.223 | 0.184 | 0.218 | 0.229 | 0.712 | 0.238 | 0.249 | 0.26 | 1.14 | 0.391 | 0.211 | 0.221 |

Reference: the supplement of paper PMC10307832
